# Like-named read-outs stand apart in the source and are kept apart here.
# Experiments:
# [1] = system: HIV-1 (IIIB); assay: Antiviral assay in MT-4 cells; assay type: cell-based
# Description: (§1) Compounds were tested in a high-throughput 384-well assay format for their ability to inhibit the replication of HIV-1 (IIIB) in MT-4 cells. Compounds were serially diluted (1.3) in DMSO on 384-well polypropylene plates and further diluted 200-fold into complete RPMI media (10% FBS, 1% P/S) using the Biotek Micro Flow and Labcyte ECHO acoustic dispenser. Each plate contained up to 8 test compounds, with negative (No Drug Control) and 5 μM AZT positive controls. MT-4 cells were pre-infected with 10 μL of either RPMI (mock-infected) or a fresh 1:250 dilution of HIV-1 IIIB concentrated virus stock. Infected and uninfected MT-4 cells were further diluted in complete RPMI media and added to each plate using a Micro Flow dispenser. After 5 days incubation in a humidified and temperature controlled incubator (37° C.), Cell Titer Glo (Promega) was added to the assay plates and chemiluminescence read using an Envision plate-reader.
# [2] = Cytotoxicity assay in MT-4 cells; assay type: cell-based; conditions: human; uninfected MT-4 cells, 5 days incubation, Cell Titer Glo; read-out: MT4 CC50
# Description: as §1
# Assays were performed as above except uninfected MT-4 cells were added to each well containing test compound. In addition, […] puromycin was added to the last column of each assay plate to assess a base level of cytotoxicity.
# [3] = Human immunodeficiency virus 1, MT4, 120 h, HIV-1 IIIB in MT-4 cells, 5 days incubation, Cell Titer Glo, read-out: MT4 EC50
"EC50 [1, 3] [nM]",SMILES,CC50 at 5 days [2] [µM],"EC50 ([1]; Human immunodeficiency virus 1, IIIB, MT4, 120 h, read-out: MT4 EC50 (nM)) [nM]"
2.87,"COC1=NO[C@@]2(CC[C@H](C)N3C[C@H]2n2cc(C(=O)NCc4ccc(F)cc4F)c(=O)c(OCOC(=O)CCCCCCC(C)C)c2C3=O)C1 [Example 119, (((3′S,5S,7′R)-10′-((2,4-difluorobenzyl)carbamoyl)-3-methoxy-3′-methyl-1′,11′-dioxo-1′,4′,5′,11′-tetrahydro-3′H,4H,7′H-spiro[isoxazole-5,6′-[2,7]methanopyrido[1,2-a][1,4]diazonin]-12′-yl)oxy)methyl 8-methylnonanoate]",43.8,–
0.562,"CCCCCCCC(=O)OCOc1c2n(cc(C(=O)NCc3ccc(F)cc3F)c1=O)[C@@H]1CN(C2=O)[C@@H](C)CC[C@]12CC(C)=NO2 [Example 96, (((3′S,5S,7′R)-10′-((2,4-difluorobenzyl)carbamoyl)-3,3′-dimethyl-1′,11′-dioxo-1′,4′,5′,11′-tetrahydro-3′H,4H,7′H-spiro[isoxazole-5,6′-[2,7]methanopyrido[1,2-a][1,4]diazonin]-12′-yl)oxy)methyl octanoate]",≥ 50,–
4.59,"CCCCCCCCC(=O)OCOc1c2n(cc(C(=O)NCc3ccc(F)cc3F)c1=O)[C@@H]1CN(C2=O)[C@@H](C)CC[C@]12CC(OC)=NO2 [Example 97, (((3′S,5S,7′R)-10′-((2,4-difluorobenzyl)carbamoyl)-3-methoxy-3′-methyl-1′,11′-dioxo-1′,4′,5′,11′-tetrahydro-3′H,4H,7′H-spiro[isoxazole-5,6′-[2,7]methanopyrido[1,2-a][1,4]diazonin]-12′-yl)oxy)methyl nonanoate]",≥ 50,–
0.516,"CCCCCCCOC(=O)Oc1c2n(cc(C(=O)NCc3ccc(F)cc3F)c1=O)[C@@H]1CN(C2=O)[C@@H](C)CC[C@]12CC(OC)=NO2 [Example 134, (3′S,5S,7′R)-10′-((2,4-difluorobenzyl)carbamoyl)-3-methoxy-3′-methyl-1′,11′-dioxo-1′,4′,5′,11′-tetrahydro-3′H,4H,7′H-spiro[isoxazole-5,6′-[2,7]methanopyrido[1,2-a][1,4]diazonin]-12′-yl heptyl carbonate]",25.7,–
0.592,"CCCCCCCC(=O)Oc1c2n(cc(C(=O)NCc3ccc(F)cc3F)c1=O)[C@@H]1CN(C2=O)[C@@H](C)CC[C@]12CC(OC)=NO2 [Example 40, (3′S,5S,7′R)-10′-((2,4-difluorobenzyl)carbamoyl)-3-methoxy-3′-methyl-1′,11′-dioxo-1′,4′,5′,11′-tetrahydro-3′H,4H,7′H-spiro[isoxazole-5,6′-[2,7]methanopyrido[1,2-a][1,4]diazonin]-12′-yl octanoate]",25.1,–
1.85,"CC1=NO[C@@]2(CC[C@H](C)N3C[C@H]2n2cc(C(=O)NCc4ccc(F)cc4F)c(=O)c(OC(=O)OCC(C)C)c2C3=O)C1 [Example 148, (3′S,5S,7′R)-10′-((2,4-difluorobenzyl)carbamoyl)-3,3′-dimethyl-1′,11′-dioxo-1′,4′,5′,11′-tetrahydro-3′H,4H,7′H-spiro[isoxazole-5,6′-[2,7]methanopyrido[1,2-a][1,4]diazonin]-12′-yl isobutyl carbonate]",16.1,–
2.73,"CCCCCCC(=O)OCOc1c2n(cc(C(=O)NCc3ccc(F)cc3F)c1=O)[C@@H]1CN(C2=O)[C@@H](C)CC[C@]12CC(C)=NO2 [Example 94, (((3′S,5S,7′R)-10′-((2,4-difluorobenzyl)carbamoyl)-3,3′-dimethyl-1′,11′-dioxo-1′,4′,5′,11′-tetrahydro-3′H,4H,7′H-spiro[isoxazole-5,6′-[2,7]methanopyrido[1,2-a][1,4]diazonin]-12′-yl)oxy)methyl heptanoate]",17.6,–
15.4,"COCCOCCOC(=O)OCOc1c2n(cc(C(=O)NCc3ccc(F)cc3F)c1=O)[C@@H]1CN(C2=O)[C@@H](C)CC[C@]12CC(OC)=NO2 [Example 4, (((3′S,5S,7′R)-10′-((2,4-difluorobenzyl)carbamoyl)-3-methoxy-3′-methyl-1′,11′-dioxo-1′,4′,5′,11′-tetrahydro-3′H,4H,7′H-spiro[isoxazole-5,6′-[2,7]methanopyrido[1,2-a][1,4]diazonin]-12′-yl)oxy)methyl (2-(2-methoxyethoxy)ethyl) carbonate]",≥ 50,–
0.218,"CCCC(=O)Oc1c2n(cc(C(=O)NCc3ccc(F)cc3F)c1=O)[C@@H]1CN(C2=O)[C@@H](C)CC[C@]12CC(OC)=NO2 [Example 34, (3′S,5S,7′R)-10′-((2,4-difluorobenzyl)carbamoyl)-3-methoxy-3′-methyl-1′,11′-dioxo-1′,4′,5′,11′-tetrahydro-3′H,4H,7′H-spiro[isoxazole-5,6′-[2,7]methanopyrido[1,2-a][1,4]diazonin]-12′-yl butyrate]",16.3,–
3.62,"CC1=NO[C@@]2(CC[C@H](C)N3C[C@H]2n2cc(C(=O)NCc4ccc(F)cc4F)c(=O)c(OCOC(=O)CCCCC(C)C)c2C3=O)C1 [Example 115, (((3′S,5S,7′R)-10′-((2,4-difluorobenzyl)carbamoyl)-3,3′-dimethyl-1′,11′-dioxo-1′,4′,5′,11′-tetrahydro-3′H,4H,7′H-spiro[isoxazole-5,6′-[2,7]methanopyrido[1,2-a][1,4]diazonin]-12′-yl)oxy)methyl 6-methylheptanoate]",16.2,–

# Further lines, the compound ahead of its results:
SMILES,"EC50 [1, 3] [nM]",CC50 at 5 days [2] [µM],"EC50 ([1]; Human immunodeficiency virus 1, IIIB, MT4, 120 h, read-out: MT4 EC50 (nM)) [nM]"
"COC1=NO[C@@]2(CC[C@H](C)N3C[C@H]2n2cc(C(=O)NCc4ccc(F)cc4F)c(=O)c(OCOC(=O)OCC(C)C)c2C3=O)C1 [Example 200, (((3′S,5S,7′R)-10′-((2,4-difluorobenzyl)carbamoyl)-3-methoxy-3′-methyl-1′,11′-dioxo-1′,4′,5′,11′-tetrahydro-3′H,4H,7′H-spiro[isoxazole-5,6′-[2,7]methanopyrido[1,2-a][1,4]diazonin]-12′-yl)oxy)methyl isobutyl carbonate]",1.9,15.2,–
"COC1=NO[C@@]2(CC[C@H](C)N3C[C@H]2n2cc(C(=O)NCc4ccc(F)cc4F)c(=O)c(OC(C)=O)c2C3=O)C1 [Example 28, (3′S,5S,7′R)-10′-((2,4-difluorobenzyl)carbamoyl)-3-methoxy-3′-methyl-1′,11′-dioxo-1′,4′,5′,11′-tetrahydro-3′H,4H,7′H-spiro[isoxazole-5,6′-[2,7]methanopyrido[1,2-a][1,4]diazonin]-12′-yl acetate]",1.72,11.6,–
"CC1=NO[C@@]2(CC[C@H](C)N3C[C@H]2n2cc(C(=O)NCc4ccc(F)cc4F)c(=O)c(OC(=O)CCCC(C)C)c2C3=O)C1 [Example 61, (3′S,5S,7′R)-10′-((2,4-difluorobenzyl)carbamoyl)-3,3′-dimethyl-1′,11′-dioxo-1′,4′,5′,11′-tetrahydro-3′H,4H,7′H-spiro[isoxazole-5,6′-[2,7]methanopyrido[1,2-a][1,4]diazonin]-12′-yl 5-methylhexanoate]",0.733,20.6,–
"CCCCCCOC(=O)Oc1c2n(cc(C(=O)NCc3ccc(F)cc3F)c1=O)[C@@H]1CN(C2=O)[C@@H](C)CC[C@]12CC(OC)=NO2 [Example 132, (3′S,5S,7′R)-10′-((2,4-difluorobenzyl)carbamoyl)-3-methoxy-3′-methyl-1′,11′-dioxo-1′,4′,5′,11′-tetrahydro-3′H,4H,7′H-spiro[isoxazole-5,6′-[2,7]methanopyrido[1,2-a][1,4]diazonin]-12′-yl hexyl carbonate]",0.153,17.8,–
"CCCCCCCCOC(=O)OCOc1c2n(cc(C(=O)NCc3ccc(F)cc3F)c1=O)[C@@H]1CN(C2=O)[C@@H](C)CC[C@]12CC(C)=NO2 [Example 178, (((3′S,5S,7′R)-10′-((2,4-difluorobenzyl)carbamoyl)-3,3′-dimethyl-1′,11′-dioxo-1′,4′,5′,11′-tetrahydro-3′H,4H,7′H-spiro[isoxazole-5,6′-[2,7]methanopyrido[1,2-a][1,4]diazonin]-12′-yl)oxy)methyl octyl carbonate]",–,15.8,2.64
"CCCCCCCCCOC(=O)OCOc1c2n(cc(C(=O)NCc3ccc(F)cc3F)c1=O)[C@@H]1CN(C2=O)[C@@H](C)CC[C@]12CC(C)=NO2 [Example 186, (((3′S,5S,7′R)-10′-((2,4-difluorobenzyl)carbamoyl)-3,3′-dimethyl-1′,11′-dioxo-1′,4′,5′,11′-tetrahydro-3′H,4H,7′H-spiro[isoxazole-5,6′-[2,7]methanopyrido[1,2-a][1,4]diazonin]-12′-yl)oxy)methyl nonyl carbonate]",2.24,≥ 50,–
"CCCCOC(=O)Oc1c2n(cc(C(=O)NCc3ccc(F)cc3F)c1=O)[C@@H]1CN(C2=O)[C@@H](C)CC[C@]12CC(OC)=NO2 [Example 128, butyl ((3′S,5S,7′R)-10′-((2,4-difluorobenzyl)carbamoyl)-3-methoxy-3′-methyl-1′,11′-dioxo-1′,4′,5′,11′-tetrahydro-3′H,4H,7′H-spiro[isoxazole-5,6′-[2,7]methanopyrido[1,2-a][1,4]diazonin]-12′-yl) carbonate]",0.21,19.3,–

# Reference: patent US20250122219A1 (priority 2023, published 2025)
